# Laboratory results as given in paper PMC6838142, “Nano-Antagonist Alleviates Inflammation and Allows for MRI of Atherosclerosis” (Nanotheranostics, 2019).
# “Also recorded” adds a separate entry of the source.
# Tests used:
# [1] = system: recombinant CCR2 protein; experiment: CCR2 receptor binding of nanoparticles to immobilized recombinant CCR2; design: species or system human; details: recombinant CCR2 2 µg/mL coated; nanoparticles 4 h room temperature; fluorescence 550/620 nm
# Experimental: A sandwich-type plate-based immunoassay was developed in-house to study CCR2 receptor binding. Black opaque plates (for fluorescence studies) or clear high protein binding plates (for absorbance studies) were coated with recombinant CCR2 protein at 2 µg/mL in PBS overnight at 4 °C. Plates were washed 5 times with PBS and treated as follows: for nanoparticles binding, varying concentrations of fluorescent nanoparticles or vehicle control (see above) in PBS were added to the opaque plates and incubated for 4 h at room temperature. For peptide competition/binding studies, recombinant human CCL2 was added in clear plates at varying concentrations in PBS simultaneously with a large excess of peptides (1 mM final concentration, dissolved in dimethylformamide) and incubated for 1 h at room temperature. All plates were washed 5 times with PBS and fluorescence in opaque plates was read at 550 nm excitation and 620 nm emissions. […] Clear plates were washed and incubated with 0.1 µg/mL streptavidin-HRP. Finally, clear plates were washed and incubated with SigmaFast OPD reagent in the presence of hydrogen peroxide-urea, as per the manufacturer's instructions. After 30 min incubation period at 37 °C, the plates were read at 450 nm on a multiwell plate reader as described above. Fluorescence emission values and OD at 450 nm were plotted against concentration using a 4-parametric fit.
# [2] = system: cytokines in cell culture supernatants; experiment: Cytokine analysis, Luminex panel; assay type: cell-based, mouse
# Experimental: (§1) Cytokines were analyzed by EVE Technologies (https://www.evetechnologies.com) using the Luminex 31-Plex kit. Cell culture supernatants were diluted twice with PBS and provided in biological triplicates to EVE Technologies via overnight shipment in dry ice. Individual IL-1β and TNFɑ assays were performed using Perkin Elmer AlphaLISA kits, as per Supplementary Table S1 and vendor instructions.
# [3] = system: CCR2hiLy6Chi inflammatory cells in blood of ApoE-/- mice; experiment: Flow cytometry of blood immune cells after injection; assay type: in vivo, mouse
# Experimental: Twenty-four hours after nanoparticle injection (see above), mice were euthanized and whole blood was collected via cardiac puncture. The cells were separated from plasma via centrifugation at 2500 rpm for 25 min at 4 °C and white blood cells were isolated after lysis of red blood cells with ACK lysis buffer. The cells were resuspended in 1% FBS in PBS (FACS buffer) on ice and stained with fluorophore-conjugated antibodies detecting CD11b, CD11c, CCR2, and Ly6C (Supplementary Table S1) for 30 min at room temperature. Cells were washed with FACS buffer three times and one time with PBS, and then fixed in 2% paraformaldehyde in PBS, pH 7.4. Samples were run on a Becton Dickinson LSR II flow cytometer and cell surface expression analysis of indicated markers was performed using FlowJo software.
# [4] = system: nanoparticle-targeted cells in atherosclerotic plaque; experiment: mRNA analysis of laser-captured nanoparticle-positive plaque areas; assay type: in vivo, mouse; details: single dose, 24 h, CCTV vs VTCC, 3-4 animals
# Experimental: Twenty-four hours after nanoparticle injection (see above), mice were euthanized and abdominal aortas were isolated and embedded in Optimal Cutting Temperature compound. After cryotome-sectioning, resulting in 20-30 slides per mouse, 15 slides were sent to Ohio State laser capture microdissection core lab for capture and analysis. The rest of the slides were processed as follows: after fixation in methanol:acetone 50:50 at -20 °C, slides were hydrated in PBS, blocked for 30 min in fish serum (Aqua Block) and stained for 1 h with primary antibodies against F4/80 followed washing and staining with HRP-conjugated secondary antibody for 30 min. DAB peroxidase kit was then used as per manufacturer's instructions followed by mounting. DAB and antibody staining (but not wash steps) was omitted in slides designated for nanoparticle fluorescence visualization. Nanoparticles fluorescence was visualized with Zeiss 510 LSM-meta confocal microscope and 20x objective. DAB F4/80 staining was visualized with Nikon FN1 microscope and same power objective.
# [5] = system: BMDMs; experiment: GSH/GSSG assay in LPS-primed BMDMs; assay type: cell-based, mouse; details: LPS-primed (100 ng/mL) BMDMs, 5 µM CCTV vs vehicle, 8 experiments
# Experimental: GSH /GSSG, lactate dehydrogenase (LDH) and DCFDA assays were performed according to the manufacturer's instructions.
# [6] = system: NLRP3 inflammasome; experiment: Inflammasome activation immunoblot in BMDMs; assay type: cell-based, mouse; details: LPS 50 ng/mL, nigericin 5 µM
# Experimental: Immunoblotting was performed as previously described with the following modifications. Briefly, cell lysates were obtained in SDS lysis buffer consisting of 2% SDS, 50 mM Tris-HCl (pH 6.8), 100 mM DTT, 5% Ficoll 400, 0.0001% bromophenol blue and a cocktail of protease inhibitors. Lysates were sonicated on ice before heating at 97 °C for 7 min to completely denature the protein. Protein concentration was determined using IR spectroscopy (which is insensitive to high SDS and DTT concentrations) with a Millipore DirectDetect spectrometer. Lysates were equally loaded at 10-15 µg per lane on BioRad TGX Criterion gels (4-15%) and resolved at 300 V in Tris-Glycine running buffer. Proteins were transferred on nitrocellulose membranes using the BioRad TransBlot turbo according to the manufacturer's instructions. Membranes were blocked in fish serum (Aqua Block) or 5% nonfat dry milk in TBS-T (0.05% Tween 20) and probed overnight at 4 °C with primary antibodies as indicated in Supplementary Table S1. The membranes were washed in TBS-T and incubated with secondary antibodies for 1 h at room temperature. After washing, semi-quantitative visualization of the proteins of interest was enabled using an enhanced chemiluminescence reagent as previously described and the Azure C400 western blot imaging system.
# (§2) BMDMs or J774 cells were plated in 48-well plates at 2 x 10^5 per well. Next day, the medium was changed to Opti-MEM (100 μL per well) without serum and the cells were allowed to equilibrate for 3 h. Next, the cells were pretreated with the indicated concentrations of nanoparticles or controls for 3 h followed by the addition of LPS to some wells to the final LPS concentration of 50 ng/mL. LPS priming continued for another 2 h, following which DMSO (vehicle), Nigericin (5 μM) or adenosine triphosphate (ATP) (1 mM) were added to some wells. Cells were incubated for an additional 30 min and cell culture supernatants were collected on ice. Cells were washed with cold PBS once and lysed/processed as described in immunoblotting section. […]
# [7] = system: IL-1β; experiment: IL-1β release, AlphaLISA; assay type: cell-based, mouse; details: inflammasome experiment supernatants, 4 experiments
# Experimental: as §1
# as §2, with “section. The supernatants (90 μL) were mixed with 10 μL of 10x SDS loading buffer (10% SDS, 10% Ficoll 400, 0.5 M Tris pH 6.8, 0.5 M DTT, and 0.001% bromophenol blue) and heat-denatured as described in the immunoblotting section.” for “section.”
# [8] = system: TNFɑ; experiment: TNFɑ release, AlphaLISA; assay type: cell-based, mouse; details: inflammasome experiment supernatants, 4 experiments
# Experimental: as §1
# as §2, with “section. The supernatants (90 μL) were mixed with 10 μL of 10x SDS loading buffer (10% SDS, 10% Ficoll 400, 0.5 M Tris pH 6.8, 0.5 M DTT, and 0.001% bromophenol blue) and heat-denatured as described in the immunoblotting section.” for “section.”
substance,measurement,setting,value
CCTV,binding to immobilized CCR2,[1],"bound to immobilized recombinant receptor protein in a dose dependent manner; also recorded: significant, dose-dependent binding"
same,levels of 14 cytokines in supernatants,[2]; Luminex inflammation array,did not detect significant differences among 14 different cytokines
same,IL-6 cytokine,[2]; not statistically significant,trend in CCTV-induced downregulation
same,IL-12p40 cytokine,[2]; not statistically significant,though to a lesser extent
same,accumulation in CCR2-positive blood macrophage subpopulations,"[3]; 100 mg/kg, 24 h, three ApoE-/- mice/group",selectively accumulated in macrophage subpopulations positive for CCR2
same,nanoparticle-positive CCR2hiLy6Chi cells,"[3]; 100 mg/kg, 24 h, three ApoE-/- mice/group, vs VTCC",an increased number of these cells were CCTV positive compared to VTCC
same,number of macrophages that engulfed nanoparticles,"[3]; Supplementary Figure S9, CCTV vs VTCC",not due to a different number of macrophages that engulfed nanoparticles
same,Arg1 mRNA in nanoparticle-targeted plaque cells,[4],"slightly upregulated in CCTV-targeted cells, however this was not significant"
same,Ccl2 mRNA in nanoparticle-targeted plaque cells,[4],downregulated
same,Il6 mRNA in nanoparticle-targeted plaque cells,[4],downregulated
same,GSH levels,[5],unable to restore GSH levels; also recorded: unaffected
same,GSSG levels,[5],unable to restore GSH levels or reduce GSSG; also recorded: unaffected
same,IL-1β and its mature form in supernatants (immunoblot),[6],dose-dependently inhibited the production of IL-1β and its mature form
same,NLRP3 protein,[6],"markedly decreased, but only in nigericin-stimulated, CCTV-treated cells"
same,cleaved caspase 1 levels,[6],reduced
same,IL-1β release,[7],confirmed the actions of CCTV
same,TNFɑ release,[8],completely unaffected
